In assay [1] the target is T1, ASGPR receptor on the cell surface (HepG2 cells) (Homo sapiens, UniProt P07306).
T1 construct: host or cells: HepG2
T1 sequence (P07306 1-291): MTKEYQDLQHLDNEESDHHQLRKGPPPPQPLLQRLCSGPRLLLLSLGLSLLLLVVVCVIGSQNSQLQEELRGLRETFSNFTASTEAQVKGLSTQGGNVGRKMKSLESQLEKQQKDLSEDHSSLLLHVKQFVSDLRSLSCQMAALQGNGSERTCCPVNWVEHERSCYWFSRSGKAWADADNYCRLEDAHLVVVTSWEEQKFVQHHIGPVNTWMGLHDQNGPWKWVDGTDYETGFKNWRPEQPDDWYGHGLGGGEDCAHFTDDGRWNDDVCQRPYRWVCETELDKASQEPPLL
T1 sequence (P07307 1-311 partner): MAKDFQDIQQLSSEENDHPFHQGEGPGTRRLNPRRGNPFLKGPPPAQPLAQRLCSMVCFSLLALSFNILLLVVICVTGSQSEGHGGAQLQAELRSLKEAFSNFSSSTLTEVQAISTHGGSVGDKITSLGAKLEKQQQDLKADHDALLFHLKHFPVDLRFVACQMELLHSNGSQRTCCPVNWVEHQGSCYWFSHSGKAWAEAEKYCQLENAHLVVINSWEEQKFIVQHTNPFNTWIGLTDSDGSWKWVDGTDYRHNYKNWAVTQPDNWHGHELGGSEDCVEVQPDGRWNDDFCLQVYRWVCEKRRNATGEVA
The assay can be described thus: Ternary complex formation assay (flow cytometry, HepG2). It counts as cell-based. The text has this:
The ternary complex formation assay is designed to identify the concentration of Degrader required to form a complex between the degrader, a constant concentration of fluorescently-labeled antibody and the ASGPR receptor on the cell surface. The peak mean fluorescence intensity (MFI) occurs at the optimal degrader concentration for ternary complex formation. Sub-optimal concentrations of degrader (too much or too little) results in fewer complexes formed and a reduced […].
Human IgG (Sigma-Aldrich, 14506) was covalently labeled with Alexa Fluor 488 using the Alexa Fluor™ 488 Protein Labeling Kit (Thermo Fisher, A10235) following the manufacturer's instructions. HepG2 cells (ATCC, HIB-8065) were cultured to about 70% confluence and harvested by trypsinization. Single cell suspensions of HepG2 cells were plated in 96 well plates at 1×10^5 cells/well in cell culture media (DMEM supplemented with […]) and placed at 4° C. For studies using human IgG, cells were incubated with 100 nM AF488-labeled anti-human IgG and serial dilutions of IgG-based degrader for 1 hour at 4° C. For studies using DNP, cells were incubated with 100 nM AF488-labeled polyclonal rabbit anti-dinitrophenyl (DNP) antibodies (ThermoFisher) and serial dilutions of DNP-based degrader for 1 hour at 4° C. After washing once with ice-cold PBS containing 0.1% BSA and 0.1% sodium azide, cells were resuspended in 150 uL PBS+0.1% BSA and cell-associated AF488 fluorescence was measured by flow cytometry using the iQue® Screener PLUS Flow Cytometer (IntelliCyt).

A further assay concerns HepG2 cells. The assay can be described thus: Cellular uptake assay of AF488-labeled antibody (HepG2). It counts as cell-based. As to conditions: HepG2 cells. How it is done:
The cellular uptake assay is designed to measure compound-mediated cellular uptake of fluorescently labeled antibody following ternary complex formation with the ASGPR receptor and endocytosis of the entire complex into cells.
Human IgG (Sigma-Aldrich, 14506) was covalently labeled with Alexa Fluor 488 using the Alexa Fluor™ 488 Protein Labeling Kit (Thermo Fisher, A10235) following the manufacturer's instructions. HepG2 cells were plated in DMEM supplemented with 10% FBS at 5,000 cells per well in a 96-well microtiter plate and incubated for approximately 18 hours at 37° C./5% CO2. For studies using human IgG, 100 nM AF488-labeled human IgG antibodies and serial dilutions of IgG-based degrader (0.1% DMSO final concentration) were added to the cells and the mixture was incubated at 37° C. for 6 hours. For studies using DNP, 100 nM AF488-labeled DNP antibodies and serial dilutions of DNP-based degrader (0.1% DMSO final concentration) were added to the cells and the mixture was incubated at 37° C. for 6 hours. HepG2 cells were fixed in 100% methanol at −20° C. for 20 min, washed 3× with PBS, then stained with DAPI (Thermo, Cat #H3570). HepG2 cells were imaged for DAPI and Alexa Fluor 488 using the Operetta CLS, high-content analysis system (PerkinElmer). Data is presented as the ratio of the number of cells positive for hIgG or DNP (AF-488 fluorescence) over the total cell number (measured by DAPI).

For another assay, the target named is IgG. The assay can be described thus: Affinity to IgG by surface plasmon resonance (SPR). It counts as binding. The method, then:
Immobilization levels ranging from 1000-1300 resonance units (RU) are obtained. The running buffer is 10 mM HEPES, pH 7.4, 400 mM NaCl, 0.005% P20, […].

In another assay the target is T2, ASGPR (Homo sapiens, UniProt P07306).
T2 sequence (P07306 1-291): T1 sequence (P07306 1-291)
The assay can be described thus: Affinity to ASGPR by surface plasmon resonance (SPR).

The mark [2] stands for this setting: 100 nM AF488-labeled antibody, 37° C. for 6 hours, class symbols, read-out: Uptake Assay EC50.
The mark [3] stands for this setting: Biacore 8K, 25° C., IgG on CM5 chip, read-out: IgG SPR Binding Kd.

Like-named read-outs stand apart in the source and are kept apart here. Where only a bound is given, the exact number is not on record here.

Consider eight compounds from patent US12091402B2 (Avilar Therapeutics, Inc., priority 2021, dated 2024).

As for `CC(C)C[C@@H]1NC(=O)[C@H](Cc2c[nH]cn2)NC(=O)[C@H](Cc2c[nH]c3ccccc23)NC(=O)[C@H](C)NC(=O)[C@@H]2CSSC[C@H](NC(=O)[C@H](Cc3c[nH]c4ccccc34)NC(=O)[C@H](C(C)C)NC(=O)[C@H](CC(C)C)NC(=O)[C@H](CCC(=O)O)NC(=O)CNC1=O)C(=O)N[C@@H]([C@@H](C)O)C(=O)N1CCC[C@@H]1C(=O)N1C[C@@H](NC(=O)CCOCCOCCOCCNC(=O)CCCc3cn(CCCCCC(=O)NC(COCCC(=O)NCCOCCOCCOCCOC[C@H]4OC[C@H](Nc5nccc(C(F)(F)F)n5)[C@@H](O)[C@H]4O)COCCC(=O)NCCOCCOCCOCCOC[C@H]4OC[C@H](Nc5nccc(C(F)(F)F)n5)[C@@H](O)[C@H]4O)nn3)C[C@H]1C(=O)N[C@@H](CC(=O)O)C(=O)N2` [Compound 11], the EC50 (in assay [1]; in the assay on HepG2 cells (setting [2])) was below 100 nM throughout.
On to `CC(C)C[C@@H]1NC(=O)[C@H](Cc2c[nH]cn2)NC(=O)[C@H](Cc2c[nH]c3ccccc23)NC(=O)[C@H](C)NC(=O)[C@@H]2CSSC[C@H](NC(=O)[C@H](Cc3c[nH]c4ccccc34)NC(=O)[C@H](C(C)C)NC(=O)[C@H](CC(C)C)NC(=O)[C@H](CCC(=O)O)NC(=O)CNC1=O)C(=O)N[C@@H]([C@@H](C)O)C(=O)N1CCC[C@@H]1C(=O)N1C[C@@H](NC(=O)COCC(=O)NC(COCCC(=O)NCCOCCOCCOCCOC[C@H]3OC[C@H](Nc4cncc(C(F)(F)F)n4)[C@@H](O)[C@H]3O)COCCC(=O)NCCOCCOCCOCCOC[C@H]3OC[C@H](Nc4cncc(C(F)(F)F)n4)[C@@H](O)[C@H]3O)C[C@H]1C(=O)N[C@@H](CC(=O)O)C(=O)N2` [Compound 43], for which the 50% effective concentration (EC50) (in assay [1]; in the assay on HepG2 cells (setting [2])) was below 100 nM throughout.
As to `O=C(CCOCC(COCCC(=O)NCCOCCOCCOCCOC[C@@]12CO[C@@H](O1)[C@H](NC(=O)C(F)(F)F)[C@@H](O)[C@H]2O)NC(=O)COCCOCCOCCNc1ccccc1)NCCOCCOCCOCCOC[C@@]12CO[C@@H](O1)[C@H](NC(=O)C(F)(F)F)[C@@H](O)[C@H]2O` [A12, 3,3′-((2-(2-(2-(2-(2-(phenylamino)ethoxy)ethoxy)ethoxy)acetamido)propane-1,3-diyl)bis(oxy))bis(N-(1-((1S,2R,3R,4R,5S)-2,3-dihydroxy-4-(2,2,2-trifluoroacetamido)-6,8-dioxabicyclo[3.2.1]octan-1-yl)-2,5,8,11-tetraoxatridecan-13-yl)propanamide)], the EC50 in assay [1] (HepG2 cells, 100 nM AF488-labeled antibody, 1 hour at 4° C., numeric bounds, read-out: Ternary Complex EC50) is above 10000 nM.
Take `CC(C)C[C@@H]1NC(=O)[C@H](Cc2cnc[nH]2)NC(=O)[C@H](Cc2c[nH]c3ccccc23)NC(=O)[C@H](C)NC(=O)[C@@H]2CSSC[C@H](NC(=O)[C@H](Cc3c[nH]c4ccccc34)NC(=O)[C@H](C(C)C)NC(=O)[C@H](CC(C)C)NC(=O)[C@H](CCC(=O)O)NC(=O)CNC1=O)C(=O)N[C@@H]([C@@H](C)O)C(=O)N1CCC[C@@H]1C(=O)N1C[C@@H](NC(=O)COCCOCCOCCOC[C@H]3OC[C@H](Nc4nccc(C(F)(F)F)n4)[C@@H](O)[C@H]3O)C[C@H]1C(=O)N[C@@H](CC(=O)O)C(=O)N2` [Compound 60]: the concentration for a half-maximal effect (EC50) in assay [1] (HepG2 cells, 100 nM AF488-labeled antibody, 1 hour at 4° C., class symbols, read-out: Ternary Complex EC50) is below 100 nM. Also, on IgG (setting [3]), the equilibrium dissociation constant (Kd) was below 100 nM.
In the case of `CC(C)C[C@@H]1NC(=O)[C@H](Cc2c[nH]cn2)NC(=O)[C@H](Cc2c[nH]c3ccccc23)NC(=O)[C@H](C)NC(=O)[C@@H]2CSSC[C@H](NC(=O)[C@H](Cc3c[nH]c4ccccc34)NC(=O)[C@H](C(C)C)NC(=O)[C@H](CC(C)C)NC(=O)[C@H](CCC(=O)O)NC(=O)CNC1=O)C(=O)N[C@@H]([C@@H](C)O)C(=O)N1CCC[C@@H]1C(=O)N1C[C@@H](NC(=O)CCOCCOCCOCCOCCNC(=O)CCCc3cn(CCCCCC(=O)NC(COCCC(=O)NCCOCCOCCOCCOC[C@H]4OC[C@H](Nc5nccc(C(F)(F)F)n5)[C@@H](O)[C@H]4O)(COCCC(=O)NCCOCCOCCOCCOC[C@H]4OC[C@H](Nc5nccc(C(F)(F)F)n5)[C@@H](O)[C@H]4O)COCCC(=O)NCCOCCOCCOCCOC[C@H]4OC[C@H](Nc5nccc(C(F)(F)F)n5)[C@@H](O)[C@H]4O)nn3)C[C@H]1C(=O)N[C@@H](CC(=O)O)C(=O)N2` [Compound 86], in assay [1] (HepG2 cells, ternary complex formation, read-out: TCF EC50), the 50% effective concentration (EC50) is below 100 nM. The compound also gave a dissociation constant Kd at ASGPR below 100 nM.
Take `CC(C)C[C@@H]1NC(=O)[C@H](Cc2cnc[nH]2)NC(=O)[C@H](Cc2c[nH]c3ccccc23)NC(=O)[C@H](C)NC(=O)[C@@H]2CSSC[C@H](NC(=O)[C@H](Cc3c[nH]c4ccccc34)NC(=O)[C@H](C(C)C)NC(=O)[C@H](CC(C)C)NC(=O)[C@H](CCC(=O)O)NC(=O)CNC1=O)C(=O)N[C@@H]([C@@H](C)O)C(=O)N1CCC[C@@H]1C(=O)N1C[C@H](NC(=O)CNC(COCCC(=O)NCCOCCOCCOCCOC[C@H]3OC[C@H](Nc4cncc(C(F)(F)F)n4)[C@@H](O)[C@H]3O)COCCC(=O)NCCOCCOCCOCCOC[C@H]3OC[C@H](Nc4cncc(C(F)(F)F)n4)[C@@H](O)[C@H]3O)C[C@H]1C(=O)N[C@@H](CC(=O)O)C(=O)N2` [Compound 92]: in the assay with HepG2 cells (read-out: Uptake EC50), the EC50 was below 100 nM. In addition, the Kd on IgG (SPR, read-out: IgG KD) is below 100 nM.
As to `CC(C)C[C@@H]1NC(=O)[C@H](Cc2c[nH]cn2)NC(=O)[C@H](Cc2c[nH]c3ccccc23)NC(=O)[C@H](C)NC(=O)[C@@H]2CSSC[C@H](NC(=O)[C@H](Cc3c[nH]c4ccccc34)NC(=O)[C@H](C(C)C)NC(=O)[C@H](CC(C)C)NC(=O)[C@H](CCC(=O)O)NC(=O)CNC1=O)C(=O)N[C@@H]([C@@H](C)O)C(=O)N1CCC[C@@H]1C(=O)N1C[C@@H](NC(=O)CCOCCOCCOCCOCCNC(=O)CCCc3cn(C[C@@]45CO[C@@H](O4)[C@H](Nc4nc(Cl)ns4)[C@@H](O)[C@H]5O)nn3)C[C@H]1C(=O)N[C@@H](CC(=O)O)C(=O)N2` [Compound 15], the 50% effective concentration (EC50) in the assay with HepG2 cells (setting [2]) lay within 100 to 500 nM. In addition, the dissociation constant (Kd) on IgG (setting [3]) was below 100 nM.
On to `CC(C)C[C@@H]1NC(=O)[C@H](Cc2c[nH]cn2)NC(=O)[C@H](Cc2c[nH]c3ccccc23)NC(=O)[C@H](C)NC(=O)[C@@H]2CSSC[C@H](NC(=O)[C@H](Cc3c[nH]c4ccccc34)NC(=O)[C@H](C(C)C)NC(=O)[C@H](CC(C)C)NC(=O)[C@H](CCC(=O)O)NC(=O)CNC1=O)C(=O)N[C@@H]([C@@H](C)O)C(=O)N1CCC[C@@H]1C(=O)N1C[C@@H](NC(=O)CNC(COCCC(=O)NCCOCCOCCOCCOC[C@H]3OC[C@H](Nc4cncc(C(F)(F)F)n4)[C@@H](O)[C@H]3O)COCCC(=O)NCCOCCOCCOCCOC[C@H]3OC[C@H](Nc4cncc(C(F)(F)F)n4)[C@@H](O)[C@H]3O)C[C@H]1C(=O)N[C@@H](CC(=O)O)C(=O)N2` [Compound 74], for which the EC50 in the assay with HepG2 cells (read-out: Uptake EC50) was below 100 nM. For the same compound, at IgG (SPR, read-out: IgG KD), the Kd was below 100 nM.
